Earlier results as cited in patent US20030236285A1, “Stabilized pharmaceutical compositions containing benzimidazole compounds” (priority 2002, published 2003).

Conditions: pH higher than 7

Cc1c(OCC(F)(F)F)ccnc1C[S+]([O-])c1nc2ccccc2[nH]1 (stereo not shown) [lansoprazole]
rate of degradation: reduced to negligible
